Measurements published in US6841680B2, “N-type calcium channel antagonists for the treatment of pain” (AstraZeneca AB, priority 2000, dated 2005).

target: N-type calcium channel (Homo sapiens, UniProt Q00975); assay: N-Channel FLIPR assay (IMR32 cells, 80 mM K+ evoked calcium flux); type: cell-based; conditions: unit inferred
Sequence (Q00975 whole entry): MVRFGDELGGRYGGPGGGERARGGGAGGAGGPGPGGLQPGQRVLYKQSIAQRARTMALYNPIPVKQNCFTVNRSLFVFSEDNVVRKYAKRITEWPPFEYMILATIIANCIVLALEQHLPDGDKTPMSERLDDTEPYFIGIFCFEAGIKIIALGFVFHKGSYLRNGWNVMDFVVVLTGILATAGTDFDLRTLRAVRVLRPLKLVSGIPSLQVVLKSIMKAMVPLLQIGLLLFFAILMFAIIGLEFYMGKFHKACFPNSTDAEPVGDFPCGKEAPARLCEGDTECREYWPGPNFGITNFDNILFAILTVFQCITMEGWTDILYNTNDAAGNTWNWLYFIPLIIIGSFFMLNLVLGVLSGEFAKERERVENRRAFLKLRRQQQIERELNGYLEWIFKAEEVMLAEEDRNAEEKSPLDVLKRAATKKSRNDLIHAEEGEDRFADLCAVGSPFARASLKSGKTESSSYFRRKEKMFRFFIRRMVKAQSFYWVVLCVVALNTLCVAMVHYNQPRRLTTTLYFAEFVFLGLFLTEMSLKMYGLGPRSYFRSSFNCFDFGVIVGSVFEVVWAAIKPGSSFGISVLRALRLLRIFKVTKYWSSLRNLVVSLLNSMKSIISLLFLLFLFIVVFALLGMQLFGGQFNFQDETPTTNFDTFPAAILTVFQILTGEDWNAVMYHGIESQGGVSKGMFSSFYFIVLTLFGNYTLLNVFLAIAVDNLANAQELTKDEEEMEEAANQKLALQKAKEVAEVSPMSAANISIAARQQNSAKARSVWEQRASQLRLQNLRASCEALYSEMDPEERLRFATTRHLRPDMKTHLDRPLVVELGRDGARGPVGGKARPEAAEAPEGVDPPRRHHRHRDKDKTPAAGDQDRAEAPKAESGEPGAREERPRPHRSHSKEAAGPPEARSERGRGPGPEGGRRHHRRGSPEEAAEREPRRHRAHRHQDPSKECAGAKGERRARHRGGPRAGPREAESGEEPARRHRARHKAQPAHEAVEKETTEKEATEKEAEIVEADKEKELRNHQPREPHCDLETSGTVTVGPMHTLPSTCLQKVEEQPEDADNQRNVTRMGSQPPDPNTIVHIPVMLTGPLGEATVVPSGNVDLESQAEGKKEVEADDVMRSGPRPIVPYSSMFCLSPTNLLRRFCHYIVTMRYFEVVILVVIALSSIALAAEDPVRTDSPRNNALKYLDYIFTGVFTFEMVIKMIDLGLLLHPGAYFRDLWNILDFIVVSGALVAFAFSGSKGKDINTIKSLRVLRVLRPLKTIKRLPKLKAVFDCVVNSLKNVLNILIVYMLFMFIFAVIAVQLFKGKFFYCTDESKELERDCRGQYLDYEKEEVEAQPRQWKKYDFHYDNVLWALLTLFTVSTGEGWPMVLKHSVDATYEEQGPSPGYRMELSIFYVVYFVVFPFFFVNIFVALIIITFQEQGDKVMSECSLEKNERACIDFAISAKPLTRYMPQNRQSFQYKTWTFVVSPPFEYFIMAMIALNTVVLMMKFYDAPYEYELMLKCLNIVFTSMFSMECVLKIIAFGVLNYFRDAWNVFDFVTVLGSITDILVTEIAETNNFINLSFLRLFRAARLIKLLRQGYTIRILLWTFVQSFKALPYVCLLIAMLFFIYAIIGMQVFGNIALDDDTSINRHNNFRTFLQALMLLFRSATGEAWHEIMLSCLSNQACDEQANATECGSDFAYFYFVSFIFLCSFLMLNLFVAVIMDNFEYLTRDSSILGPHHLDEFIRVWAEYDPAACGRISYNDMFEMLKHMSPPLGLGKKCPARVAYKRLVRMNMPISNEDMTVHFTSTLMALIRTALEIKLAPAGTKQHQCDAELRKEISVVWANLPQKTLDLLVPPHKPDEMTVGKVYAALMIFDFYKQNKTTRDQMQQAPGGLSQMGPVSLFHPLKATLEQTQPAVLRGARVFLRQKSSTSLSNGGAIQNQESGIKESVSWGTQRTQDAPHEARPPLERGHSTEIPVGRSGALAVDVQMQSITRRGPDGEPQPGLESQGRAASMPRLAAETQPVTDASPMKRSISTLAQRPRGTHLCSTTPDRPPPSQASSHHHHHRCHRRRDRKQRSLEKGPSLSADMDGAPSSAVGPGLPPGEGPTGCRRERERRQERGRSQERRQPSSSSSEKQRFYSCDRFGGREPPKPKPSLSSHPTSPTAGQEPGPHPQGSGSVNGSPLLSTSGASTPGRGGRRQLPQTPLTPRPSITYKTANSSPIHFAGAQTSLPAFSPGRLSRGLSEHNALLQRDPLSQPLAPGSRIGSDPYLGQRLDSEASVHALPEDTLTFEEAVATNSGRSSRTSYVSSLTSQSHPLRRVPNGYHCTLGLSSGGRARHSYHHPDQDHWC
Sequence (P54289 25-1103 partner): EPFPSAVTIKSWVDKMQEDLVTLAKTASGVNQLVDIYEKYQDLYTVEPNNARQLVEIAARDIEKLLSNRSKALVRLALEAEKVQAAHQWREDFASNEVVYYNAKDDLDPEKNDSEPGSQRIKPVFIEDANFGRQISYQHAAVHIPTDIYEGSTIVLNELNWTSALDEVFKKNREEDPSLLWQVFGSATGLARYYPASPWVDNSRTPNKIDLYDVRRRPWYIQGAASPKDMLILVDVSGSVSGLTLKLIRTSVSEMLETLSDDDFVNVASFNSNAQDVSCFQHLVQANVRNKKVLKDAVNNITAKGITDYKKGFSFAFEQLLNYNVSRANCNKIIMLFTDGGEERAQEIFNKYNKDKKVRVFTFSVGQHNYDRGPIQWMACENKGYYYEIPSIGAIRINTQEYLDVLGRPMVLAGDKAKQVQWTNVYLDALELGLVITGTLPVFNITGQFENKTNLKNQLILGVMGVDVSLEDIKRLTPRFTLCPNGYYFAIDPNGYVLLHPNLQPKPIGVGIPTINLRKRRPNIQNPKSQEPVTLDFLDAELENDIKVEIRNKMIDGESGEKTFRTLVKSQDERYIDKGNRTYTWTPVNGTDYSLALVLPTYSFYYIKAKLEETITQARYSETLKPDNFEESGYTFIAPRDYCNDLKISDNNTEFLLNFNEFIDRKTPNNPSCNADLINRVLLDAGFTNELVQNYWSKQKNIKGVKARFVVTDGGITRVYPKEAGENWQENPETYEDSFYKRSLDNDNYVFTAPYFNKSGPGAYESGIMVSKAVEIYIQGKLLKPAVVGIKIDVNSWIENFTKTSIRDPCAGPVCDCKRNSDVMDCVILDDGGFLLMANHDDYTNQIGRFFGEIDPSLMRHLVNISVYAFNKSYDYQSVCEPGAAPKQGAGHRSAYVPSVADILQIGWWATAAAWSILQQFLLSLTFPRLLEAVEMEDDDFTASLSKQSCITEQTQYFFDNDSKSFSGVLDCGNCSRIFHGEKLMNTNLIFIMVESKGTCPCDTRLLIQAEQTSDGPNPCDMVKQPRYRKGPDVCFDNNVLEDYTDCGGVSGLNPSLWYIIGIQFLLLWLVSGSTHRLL
Sequence (P54284 whole entry partner): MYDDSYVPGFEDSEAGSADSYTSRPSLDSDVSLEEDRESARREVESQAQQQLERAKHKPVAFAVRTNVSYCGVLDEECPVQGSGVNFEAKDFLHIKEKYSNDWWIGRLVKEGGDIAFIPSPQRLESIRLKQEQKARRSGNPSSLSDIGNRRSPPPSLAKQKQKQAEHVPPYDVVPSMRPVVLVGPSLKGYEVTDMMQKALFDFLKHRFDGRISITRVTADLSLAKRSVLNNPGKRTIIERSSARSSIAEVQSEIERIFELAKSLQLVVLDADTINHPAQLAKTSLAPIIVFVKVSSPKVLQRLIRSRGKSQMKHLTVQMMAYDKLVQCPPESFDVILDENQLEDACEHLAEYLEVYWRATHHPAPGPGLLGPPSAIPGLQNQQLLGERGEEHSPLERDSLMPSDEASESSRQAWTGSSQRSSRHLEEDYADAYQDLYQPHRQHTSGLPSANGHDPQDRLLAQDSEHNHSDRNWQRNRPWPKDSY

Row | IC50 [µM] | Compound
1 | 5.38 | CNc1cc(-c2cccc(F)c2)nc2ccc(-c3ccccc3C=O)cc12 [Example 15, 2-[2-(3-fluorophenyl)-4-(methylamino)-6-quinolinyl]-benzaldehyde]
2 | 5.78 | CNc1cc(-c2cccc(F)c2)nc2ccc(-c3ccccc3OC)cc12 [Example 16, 2-(3-fluorophenyl)-6-(2-methoxyphenyl)-4-methylaminoquinoline]
3 | 8.82 | CNc1cc(-c2cccc(F)c2)nc2ccc(-c3ccccc3C)cc12 [Example 14, 2-(3-fluorophenyl)-6-(2-methylphenyl)-4-methylaminoquinoline]
4 | 10.5 | CNc1cc(-c2cccc(F)c2)nc2ccc(-c3ccccc3Cl)cc12 [Example 12, 2-(3-fluorophenyl)-6-(2-chlorophenyl)-4-methylaminoquinoline]
5 | 8.6 | CNc1cc(-c2cccc(F)c2)nc2ccc(-c3ccccc3)cc12 [Example 13, 2-(3-fluorophenyl)-6-phenyl-4-methylaminoquinoline]

tested on: NK-1 receptor; assay: not given; conditions: phenylbenzoquinone-induced writhing and formalin test; Garret et al; cited from earlier work

Row | Compound | analgesia
6 | COc1ccccc1CC(=N)N1C[C@@H]2C(=O)CCC(c3ccccc3)(c3ccccc3)[C@@H]2C1 [RP 67,580] | produced analgesia with potency comparable to that of morphine
